The values that follow come from patent US20240252694A1, “CONJUGATES COMPRISING COVALENT BINDERS FOR TARGETING INTRACELLULAR KRAS G12C PROTEINS” (RayzeBio, Inc., priority 2021, published 2024).

Assay [1] concerns human ERK1 dually phosphorylated at T202/Y204 and ERK2. Nature of the assay: Phosphorylated ERK1/ERK2 ELISA. It is filed as cell-based. To be noted: phosphorylated ERK in cell lysates after treatment with compounds, sandwich ELISA, cell line not stated. The method, then: An ERK phosphorylation ELISA kit was used to characterize compounds for KRAS-based cell activity. The sandwich ELISA (RnD Systems. Catalog #DYC1018B) measures human ERK1 that is dually phosphorylated at T202/Y204 and ERK2. Cell lysates from cells before and after treatment with compounds were prepared using kit manufacturer protocols.
All reagents were prepared following the kit's protocol. The wells of a 96-well microtiter plate were coated with 100 μL of 8.0 μg/mL of capture antibody in PBS. The plate was sealed and left to incubate overnight at ambient temperature. After incubation, the wells were washed with 400 μL of Wash Buffer for a total of 3 washes. Wells were then blocked by adding 300 μL of Block Buffer to each well and incubated at ambient temperature for 1-2 hours. After removal of the Block Buffer by aspirating and washing, 100 μL of standards and samples were added to the plate in duplicates and incubated for 2 hours at ambient temperature. The aspiration and wash steps were repeated to remove unbound standard and samples and 100 μL of 400 ng/mL detection antibody was applied to each well. After 2 hours at ambient temperature, detection antibody was removed by washing and 100 μL of Streptavidin-HRP was added to each well. Incubation of Streptavidin-HRP was at ambient temperature for 20 minutes, after which Streptavidin-HRP was removed by washing, 100 μL of Substrate Solution was added to each well and incubated for 20 minutes before 50 μL of Stop Solution was added to each well.
The optical density of each well was immediately analyzed at 450 nm with a wavelength correction at 540 nm. The standards were plotted by averaging the optical density for each replicate and fitted with a four-parameter logistic curve fit. Concentrations of phosphorylated ERK in cell lysate samples were determined by extrapolation from the standard curve and then adjusted for any dilution factors.

Assay [2] concerns the target T1, KRAS (G12C) (Homo sapiens, UniProt P01116, G12C).
T1 construct: purchased BPS Bioscience 79859
Nature of the assay: KRAS G12C Nucleotide Exchange Assay (fixed GTP concentration). It is filed as biochemical. The note with it: KRAS (G12C) labeled with BODIPY-GDP; fixed GTP concentration; 2 hours compound incubation; fluorescence readout; read-out: IC50. As to the method:
A KRAS (G12C) Nucleotide Exchange Assay kit was used to evaluate compound antagonistic binding. The assay kit (BPS Bioscience. Catalog #79859) utilizes KRAS (G12C) labeled with BODIPY-GDP to determine if compounds can affect the nucleotide exchange (GDP to GTP) in KRAS signaling, Compounds were typically characterized using both protocols: fixed GTP concentrations and fixed inhibitor concentrations.
All reagents were prepared following manufacturer's protocol. 5 μL BODIPY-GDP and 10 μL of KRAS buffer were added to each well. A 3-fold serial dilution of compound in 5% DMSO was prepared. Typically, compounds were tested in the range of 0 μM to 50 μM, but the range could be modified depending on the characterization needs. 5 μL of diluted compound was added to the wells and the plate was centrifuged briefly to ensure all components were mixed before incubation at ambient temperature. After incubation for 2 hours, 10 μM GTP and 25 mM EDTA were mixed at a 1:1 ratio and 5 μL was added to the wells. The plate was then incubated for 1 hour at ambient temperature. After incubation, fluorescence was measured at […].
Data was analyzed by plotting fluorescence vs GTP concentration for control wells and compound wells.

T1 sequence (P01116 1-188 isoform P01116-2 G12C): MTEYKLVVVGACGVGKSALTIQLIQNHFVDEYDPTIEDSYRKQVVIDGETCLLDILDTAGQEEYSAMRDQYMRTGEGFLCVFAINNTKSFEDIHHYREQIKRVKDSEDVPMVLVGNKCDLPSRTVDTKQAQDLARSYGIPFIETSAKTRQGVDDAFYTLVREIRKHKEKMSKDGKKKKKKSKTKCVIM

For orientation: IC50 means the midpoint of a concentration-inhibition curve. Take `C=CC(=O)N1CCN(c2nc(OC[C@@H]3CCCN3C)nc3c2CCN(c2cccc4cccc(I)c24)C3)C[C@@H]1CC#N` [Ex-9, 2-[(2S)-4-[7-(8-iodo-1-naphthyl)-2-[[(2S)-1-methylpyrrolidin-2-yl]methoxy]-6,8-dihydro-5H-pyrido[3,4-d]pyrimidin-4-yl]-1-prop-2-enoyl-piperazin-2-yl]acetonitrile]: the values for the IC50 in assay [1] (Homo sapiens) and in assay [2] were below 100 nM and 1000 to 10000 nM, respectively.
With `C=CC(=O)N1CCN(c2nc(OC[C@@H]3CCCN3CCNC(=O)CN3CCN4CCN5CCN(CC3)CC(=O)[O][Lu]([O]C(=O)C4)[O]C(=O)C5)nc3c2CCN(c2cccc4cccc(Cl)c24)C3)C[C@@H]1CC#N` [Lu-CHL-002, N-[2-[(2S)-2-[[7-(8-chloro-1-naphthyl)-4-[(3S)-3-(cyanomethyl)-4-prop-2-enoyl-piperazin-1-yl]-6,8-dihydro-5H-pyrido[3,4-d]pyrimidin-2-yl]oxymethyl]pyrrolidin-1-yl]ethyl]-2-(3,16,19-trioxo-2,17,18-trioxa-5.8,11,14-tetraza-1λ3-lutetatricyclo[9.6.3,25,14]docosan-8-yl)acetamide], the IC50 in assay [1] and in assay [2] was 1000 to 10000 nM throughout.
In the case of `C=CC(=O)N1CCN(c2nc(OC[C@@H]3CCCN3CCCCOCc3cccc(I)c3)nc3c2CCN(c2cccc4cccc(Cl)c24)C3)C[C@@H]1CC#N` [Ex-3], the IC50 in assay [1] (Homo sapiens) was in the range of 100 to 1000 nM; in assay [2] it was 1000 to 10000 nM.
